Read-outs that look alike come from different tables or passages of the source.
Columns and labels:
MOLM14 = experiment: Proliferation assay A (spheroid assay) MOLM14; format: cell-based, human; conditions: MOLM14 cells, 8 d, AUC of confluence against time, absolute IC50, read-out: (3a) Spheroid assay MOLM14 (IC50(μM)) Assay A
Experimental: 3a) Proliferation Assay A
The anti-proliferative effect of menin/MLL protein/protein interaction inhibitor test compounds was assessed in human leukemia cell lines. The cell lines MV-4-11 and MOLM14 harbor MILL translocations and express the MILL fusion proteins MLL-AF4 and MLL-AF9, respectively, as well as the wildtype protein from the second allele. […] K562 was used as a control cell line containing two MLL wildtype alleles in order to exclude compounds that display general cytotoxic effects.
MV-4-11 and MOLM14 were cultured in RPMI-1640 (Sigma Aldrich) supplemented with 10% fetal bovine serum (HyClone), 2 mM L-glutamine (Sigma Aldrich) and 50 μg/ml gentamycin (Gibco). K562 were propagated in RPMI-1640 (Sigma Aldrich) supplemented with 20% fetal bovine serum (HyClone), 2 mM L-glutamine (Sigma Aldrich) and 50 μg/ml gentamycin (Gibco).
In order to assess the anti-proliferative effects, 1,500 MV-4-11, 300 MOLM14 or 750 K562 cells were seeded in 200 μl media per well in 96-well round bottom, ultra-low attachment plates (Costar, catalogue number 7007). Cell seeding numbers were chosen based on growth curves to ensure linear growth throughout the experiment. Test compounds were added at different concentrations and the DMSO content was normalized to 0.3%. Cells were incubated for 8 d at 37° C. and 5% CO2. Spheroid like growth was monitored in real-time by live-cell imaging (IncuCyteZOOM, Essenbio, 4× objective) acquiring one image every four hours for 8 d. Confluence (%) as a measure of spheroid size was determined using an integrated analysis tool.
In order to determine the cumulative effect of the test compounds over time, the area under the curve (AUC) in a plot of confluence against time was calculated. Confluence at the beginning of the experiment (t=0) was used as baseline for the AUC calculation.
Absolute IC50 values were calculated according to the following procedure: % Control=(AUC sample/AUC control)*100
AUC control mean AUC of control values (cells without compound/DMSO as vehicle control)
A non-linear curve fit was applied using the least squares (ordinary) fit method to the plot of % control versus compound concentration. Based on this, the absolute IC50 value (half maximal inhibitory concentration of the test compound causing an anti-proliferative effect of 50% relative to the vehicle control) was calculated.

menin = molecular target: T1, menin (Homo sapiens, UniProt O00255, T541A); experiment: Menin/MLL homogenous time-resolved fluorescence (HTRF) assay; format: binding
T1 construct: Menin (a.a. 1-610-6×his tag)
T1 sequence (O00255 with tags, fused parts or gaps T541A): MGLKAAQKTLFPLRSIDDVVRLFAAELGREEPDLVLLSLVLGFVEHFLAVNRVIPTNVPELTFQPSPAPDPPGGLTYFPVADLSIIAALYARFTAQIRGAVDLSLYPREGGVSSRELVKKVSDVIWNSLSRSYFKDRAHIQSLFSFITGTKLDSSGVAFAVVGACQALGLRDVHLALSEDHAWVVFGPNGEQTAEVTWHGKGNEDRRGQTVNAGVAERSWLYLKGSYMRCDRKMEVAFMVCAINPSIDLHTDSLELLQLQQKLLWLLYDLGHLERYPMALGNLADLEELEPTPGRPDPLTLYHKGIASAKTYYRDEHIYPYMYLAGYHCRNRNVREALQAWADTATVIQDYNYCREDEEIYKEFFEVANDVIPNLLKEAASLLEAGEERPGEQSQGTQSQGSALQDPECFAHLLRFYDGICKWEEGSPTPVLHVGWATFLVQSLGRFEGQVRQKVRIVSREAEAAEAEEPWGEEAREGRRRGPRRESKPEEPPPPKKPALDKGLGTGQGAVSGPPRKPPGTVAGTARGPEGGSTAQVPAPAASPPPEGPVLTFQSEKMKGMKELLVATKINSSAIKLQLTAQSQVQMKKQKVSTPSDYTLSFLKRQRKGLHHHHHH
Method in brief: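 Terbium-labeled menin (aa 1-610, His-tagged; […]) preincubated 5 min with compound, then 75 nM FITC-MBM1 peptide for 15 min, ambient, Tris pH 7.5, 0.5% DMSO. HTRF 520/490 ratio; 11-point 3-fold titration; IC50 from % inhibition fit.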

MV-4-11 = experiment: Proliferation assay A (spheroid assay) MV-4-11; format: cell-based, human; conditions: MV-4-11 cells, 8 d, AUC of confluence against time, absolute IC50, read-out: (3a) Spheroid assay MV-4-11 (IC50(μM)) Assay A
Method in brief: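 Spheroid growth in ultra-low-attachment round-bottom wells (1,500 MV-4-11, 300 MOLM14 or 750 K562 cells), compound titration at 0.3% DMSO, 8 d at 37° C. Confluence imaged every 4 h; AUC from t=0 baseline expressed as % of DMSO control and fitted for absolute IC50.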

[1] = location 2, read-out: (2) location 2 Menin HTRF assay (IC50 (nM))
[2] = location 1, read-out: (2) location 1 Menin HTRF assay (IC50 (nM))

Compound	IC50 (MOLM14; Homo sapiens, MOLM-14, 192 h)	IC50 (menin; [1])	IC50 (MV-4-11; Homo sapiens, MV4-11, 192 h)	IC50 (menin; [2])	IC50 (MOLM14)	IC50 (MV-4-11)
N#CCc1ccc(NC2CC3(CCN(c4ncnc5sc(CC(F)(F)F)cc45)C3)C2)cc1F (mixture of isomers) [Compound 168]	2.52 µM	20.8 nM	1.65 µM			
FC(F)(F)Cc1cc2c(N3CCC4(CC(Nc5ccc6cc(C(F)(F)F)[nH]c6c5)C4)C3)ncnc2s1 (mixture of isomers) [Compound 314]	> 3.75 µM	27.1 nM	3.83 µM			
CNc1nc(N2CCC3(CC(Nc4ccc(CC#N)cc4)C3)C2)c2cc(CC(F)(F)F)sc2n1 (mixture of isomers) [Compound 390]	> 3.75 µM	14.6 nM	2.84 µM			
N#CCc1ccc(NC2CCC3(C2)CN(c2ncnc4sc(CC(F)(F)F)cc24)C3)cc1 (racemic) [Compound 278]	> 3.75 µM	22.8 nM	> 3.75 µM			
FC(F)(F)Cc1cc2c(N3CC[C@@]4(CC[C@@H](NCc5ccccc5)C4)C3)ncnc2s1 (single isomer, unassigned) [Compound 3]	2.39 µM	10 nM	0.75 µM	75.7 nM		
FC(F)(F)Cc1cc2c(N3CCC4(CCC(Nc5ccccc5)C4)C3)ncnc2s1 (single isomer, unassigned) [Compound 33]	4.45 µM	2050 nM	5.11 µM			
O=c1[nH]c2ccc(CNC3CCC4(C3)CN(c3ncnc5sc(CC(F)(F)F)cc35)C4)cc2o1 (single isomer, unassigned) [Compound 55]	1.27 µM	7 nM	0.28 µM			
O=c1[nH]c2cc(CNC3CCC4(C3)CN(c3ncnc5sc(CC(F)(F)F)cc35)C4)ccc2o1 (single isomer, unassigned) [Compound 57]		3.6 nM			0.44 µM	0.09 µM
COc1nc(N2CCC3(CC(NCc4ccccc4)C3)C2)c2cc(CC(F)(F)F)sc2n1 (single isomer, unassigned) [Compound 60]	3.46 µM	23.2 nM	3.2 µM			
O=c1[nH]c2ccc(CNC3CCC4(C3)CN(c3ncnc5sc(CC(F)(F)F)cc35)C4)cc2[nH]1 (single isomer, unassigned) [Compound 108]	> 3.75 µM	5.2 nM				0.53 µM
FC(F)(F)Cc1cc2c(N3CCC4(CC(Nc5ccccc5)C4)C3)ncnc2s1 (single isomer, unassigned) [Compound 149]	> 3.75 µM	37.5 nM	3.67 µM			
N#CC1(c2ccc(NC3CC4(CCN(c5ncnc6sc(CC(F)(F)F)cc56)C4)C3)cc2)CC1 (single isomer, unassigned) [Compound 172]	3.05 µM	8.4 nM	0.9 µM			
CC(C)(N[C@H]1CCC2(C1)CN(c1ncnc3sc(CC(F)(F)F)cc13)C2)c1ccccc1 (single isomer, unassigned) [Compound 281]	1.78 µM	62.7 nM	1.11 µM			
N#CCc1ccc(NC2CC3(CCN(c4ncnc5sc(CC(F)(F)F)cc45)C3)C2)cc1 (single isomer, unassigned) [Compound 306]	3.82 µM	78.2 nM				2.25 µM
Nc1nc(N2CCC3(CC(Nc4ccc5[nH]c(=O)oc5c4)C3)C2)c2cc(CC(F)(F)F)sc2n1 (single isomer, unassigned) [Compound 386]	1.99 µM	86.8 nM	> 3.75 µM			
FC(F)(F)Cc1cc2c(N3CCC4(CCC(NCc5ccccc5)CC4)C3)ncnc2s1 (stereo not drawn) [Compound 1]	0.79 µM	5 nM	0.17 µM	3.7 nM		
O=c1[nH]c2ccc(CNC3CCC4(C3)CN(c3ncnc5sc(CC(F)(F)F)cc35)C4)cc2[nH]1 (stereo not drawn) [Compound 14]	2.3 µM	0.8 nM	0.39 µM	5.9 nM		
O=c1[nH]c2ccc(CNC3CCC4(C3)CN(c3ncnc5sc(CC(F)(F)F)cc35)C4)cc2o1 (stereo not drawn) [Compound 15]	1.29 µM	2.2 nM	0.25 µM			
O=c1[nH]c2cc(CNC3CCC4(C3)CN(c3ncnc5sc(CC(F)(F)F)cc35)C4)ccc2o1 (stereo not drawn) [Compound 16]	0.19 µM	2 nM	0.03 µM			
FC(F)(F)Cc1cc2c(N3CC4(CCC(NCc5cccc(-c6cc[nH]n6)c5)C4)C3)ncnc2s1 (stereo not drawn) [Compound 17]	3.51 µM	7.2 nM	1.36 µM			
CC(C)N(C)CC1CC2(CCN(c3ncnc4sc(CC(F)(F)F)cc34)C2)C1 (stereo not drawn) [Compound 40]	2.64 µM	90.9 nM	3.13 µM			
CC(NC1CCC2(C1)CN(c1ncnc3sc(CC(F)(F)F)cc13)C2)c1ccccc1 (stereo not drawn) [Compound 42]	0.69 µM	43.8 nM	1.24 µM			
N#CCc1ccc(NC2CC3(CCN(c4ncnc5sc(CC(F)(F)F)cc45)C3)C2)cc1 (stereo not drawn) [Compound 44]	2.61 µM	11.3 nM	2.08 µM			
CC(C)NC1CC2(CCN(c3ncnc4sc(CC(F)(F)F)cc34)C2)C1 (stereo not drawn) [Compound 51]	2.46 µM		0.81 µM	61.3 nM		
COc1nc(N2CCC3(CC(NCc4ccccc4)C3)C2)c2cc(CC(F)(F)F)sc2n1 (stereo not drawn) [Compound 59]	0.85 µM	4.5 nM	0.28 µM			
CNc1nc(N2CCC3(CC(NCc4ccccc4)C3)C2)c2cc(CC(F)(F)F)sc2n1 (stereo not drawn) [Compound 61]	0.29 µM	2.4 nM	0.1 µM			

From patent US11396517B1, “Exo-aza spiro inhibitors of menin-MLL interaction” (Janssen Pharmaceutica NV, priority 2017, dated 2022)
